Experimental data reported in ChEMBL document CHEMBL3430912, “GSK Tres Cantos Anti-Kinetoplastid Screening (TCAKS) Data”.

Key:
Trypanosoma cruzi [1] = experiment: GSK_TCAKS: pIC50 Trypanosoma cruzi viability assay using beta-GAL activity. This assay was run at single shot at 5uM compound concentration per well. The biological reagents consisted of NIH-3T3 host cells and trypomastigotes parasitic cells; both cell types were set to a 3.3 * 10^5 cells/mL dilution in assay DMEM by means of a CASY cell counter device using a 60um capillary. 6 uL of the mixture were dispensed per well (about 1 * 10^3 host-cells and 1 * 10^3 parasites) with a Multidrop Combi dispenser. […] In all wells, the percentage of DMSO never exceeded 0.5%. Plates incubated for four days at 37C, 5% CO2. The substrate used for the assay fluorescence intensity (FLINT) readout was resorufin-beta-D-galactopiranoside (Sigma-Aldrich) at 5uM per well. It was diluted in PBS supplemented with the soft detergent Igepal (Fluka).; assay type: functional, organism-based, Mus musculus; conditions: Tulahuen, NIH3T3
Trypanosoma cruzi [2] = experiment: (§1) GSK_TCAKS: pIC50 Trypanosoma cruzi Imaging: Infected Cells. […] Cells were then washed once with PBS before infection. T. cruzi trypomastigotes, collected at days 5 to 8 after infection from LLC-MK2 parasite infected cultures, were allowed to swim out for 4h at 37C from a centrifuged pellet (2,500 rpm/10 min/room temperature). Trypomastigotes were then collected and counted in a CASY Cell Counter. Trypomastigotes, in supplemented DMEM, were added to H9c2 cultures in a multiplicity of infection of 1 and incubated for 18 h. Cells were washed once with PBS before incubation of the infected H9c2 monolayer with trypsin (Life-Technologies) to detach cells from the flask. Cells were counted in a CASY Cell Counter using a 150 um capillary and their density set at 5 * 10^4 cells per mL in supplemented assay DMEM. Infected H9c2 were dispensed into 384-well poly-lysine coated assay plates at 50uL per well using a Multidrop Combi dispenser. After seeding them, the plates were incubated at 37C, 5% CO2 for 72h. Cultures were then fixed and stained by addition of 50 uL of a solution containing 8% formaldehyde and 4 uM DRAQ5 DNA dye (BioStatus, UK) per well. […] Five images were collected per well for reliable statistical analysis. Automated image analysis was performed with a script developed on Acapella High Content Imaging and Analysis Software (PerkinElmer). Output: percentage of infected cells per well as a second infection marker.; assay type: functional, organism-based, Rattus norvegicus; conditions: H9c2, 4 h
Trypanosoma cruzi [3] = experiment: GSK_TCAKS: pIC50 Trypanosoma cruzi Imaging: Amastigotes/Cell. […] Cells were then washed once with PBS before infection. T. cruzi trypomastigotes, collected at days 5 to 8 after infection from LLC-MK2 parasite infected cultures, were allowed to swim out for 4h at 37C from a centrifuged pellet (2,500 rpm/10 min/room temperature). Trypomastigotes were then collected and counted in a CASY Cell Counter. Trypomastigotes, in supplemented DMEM, were added to H9c2 cultures in a multiplicity of infection of 1 and incubated for 18 h. Cells were washed once with PBS before incubation of the infected H9c2 monolayer with trypsin (Life-Technologies) to detach cells from the flask. Cells were counted in a CASY Cell Counter using a 150 um capillary and their density set at 5 * 10^4 cells per mL in supplemented assay DMEM. Infected H9c2 were dispensed into 384-well poly-lysine coated assay plates at 50uL per well using a Multidrop Combi dispenser. After seeding them, the plates were incubated at 37C, 5% CO2 for 72h. Cultures were then fixed and stained by addition of 50 uL of a solution containing 8% formaldehyde and 4 uM DRAQ5 DNA dye (BioStatus, UK) per well. […] Five images were collected per well for reliable statistical analysis. Automated image analysis was performed with a script developed on Acapella High Content Imaging and Analysis Software (PerkinElmer). Output: number of amastigotes per cell as infection level measurement.; assay type: functional, organism-based, Rattus norvegicus; conditions: H9c2, 4 h
Trypanosoma cruzi [4] = experiment: as §1, with “H2C9” for “Trypanosoma cruzi”, “H9c2 Host Cardiomyocytes.” for “Infected Cells.”, “Number” for “percentage”, “H9c2 Host Cardiomyocytes nuclei to determine drug-related cytotoxicity.” for “infected cells per well as a second infection marker.”; assay type: functional, organism-based, Rattus norvegicus; conditions: H9c2, 4 h
Leishmania donovani [5] = experiment: GSK_TCAKS: pIC50 Leishmania donovani viability assay using fluorescence intensity. Assay plates (1536-well) were prepared by adding 30nL per well of compound. For single shot assay, the final compound concentration was 5uM. […] Briefly, eGFP LdBOB axenic amastigotes were harvested, fixed and counted in a CASY cell counter (Roche-Applied Science). A final concentration of 1.5 * 10^5 cells per well were prepared in amastigote media containing 500 U/mL penicillin/streptomycin (Invitrogen) and 6uL was dispensed to each experimental well using a Multidrop Combi dispenser (Thermo Scientific). 6uL of assay media was dispensed to control columns used as reference for 100% compound response. Following incubation for 72 h at 37C, 5% CO2, 2 uL of resazurin was added to each well at a final concentration of 0.5 mM in phosphate buffered saline (PBS) with IGEPAL (Sigma-Aldrich), 0.05% (v/v).; assay type: functional, organism-based
Leishmania donovani [6] = experiment: (§2) GSK_TCAKS: pIC50 Leishmania donovani Imaging: Infected Macrophages. Assay plates (384-well) were prepared by adding 250nL of compound to each well. For single shot assay, the final compound concentration was 5 uM. […] Automated image analysis was performed with a script developed on Acapella High Content Imaging and Analysis Software (PerkinElmer). Output: Percent of infected macrophage cells were reported for each well.; assay type: functional, organism-based, Homo sapiens; conditions: THP-1
Leishmania donovani [7] = experiment: as §2, with “Amastigotes/Macrophages.” for “Infected Macrophages.”, “Average number” for “Percent”, “amastigotes per” for “infected”, “cell” for “cells”; assay type: functional, organism-based, Homo sapiens; conditions: THP-1
Leishmania donovani [8] = experiment: as §2, with “THP-1 Host” for “Infected”, “THP-1 cell count” for “Percent of infected macrophage cells”; assay type: functional, organism-based, Homo sapiens
[9] = tested on: Trypanosoma brucei brucei; experiment: GSK_TCAKS: pIC50 Trypanosoma brucei viability assay using fluorescence intensity. Assay plates (1536-well) were prepared by dispensing 25nL of compound solution per well using an Echo acoustic dispenser (Labcyte).; assay type: functional, organism-based; conditions: Lister 427, 2 h
[10] = tested on: Trypanosoma brucei brucei; experiment: GSK_TCAKS: pIC50 Trypanosoma brucei viability assay using luminiscence. Assay plates (1536-well) were prepared. T. brucei cultures were harvested and counted in a CASY cell counter. A parasite suspension was prepared at a final concentration of 5 * 10^4 cells/mL in complete HMI9 medium and 6uL was dispensed to all wells containing compounds using a Multidrop Combi dispenser. 6uL of HMI9 media with 0.4% DMSO were dispensed to control columns. Plates were incubated for 24 h at 37C, 5% CO2 then tempered for 10 min at room temperature. ATP content was quantified by adding 4 uL of CellTiter-Glo Reagent (Promega) according to the manufacturer's instructions. Luminescence was measured using a ViewLux.; assay type: functional, organism-based; conditions: Lister 427, CASY
[11] = GSK_TCAKS: pIC50 HepG2 human cell line viability assay using luminiscence. […] Seeding density was checked to ensure that new mono-layers were not more than 50% confluent at the time of harvesting. Cell suspension was added to 500 mL of the same medium at a final density of 1.2 * 10^5 cells/mL. This cell suspension was dispensed (25 uL, 3000 cells per well) into 384-well clear-bottom plates using a Multidrop Combi dispenser. Prior to addition of the cell suspension, the screening compounds (250 nL) were pre-dispensed into the plates with an Echo liquid handler. Plates were incubated for 48 h at 37C, 5% CO2. After incubation, plates equilibrated at room temperature for 30 min before proceeding to develop the luminescent signal. The signal developer, CellTiter-Glo Reagent, was allowed to equilibrate at room temperature for 30 min and added to the plates (25uL per well) using a Multidrop Combi dispenser. Plates were left for 10 min at room temperature for stabilization and then read using a ViewLux.; assay type: toxicity, cell-based
NIH3T3 = experiment: GSK_TCAKS: pIC50 NIH 3T3 cell line viability assay using luminiscence. Tissue culture surface treated assay plates (1536-well) were used. […] The 100% cells survival control was determined exposing the host-cells to a 0.5% DMSO concentration, whereas the 100% toxicity control was achieved by seeding the cells in presence of Amphotericin B at 50uM. Plates were incubated for four days at 37C, 5% CO2. The assay readout was developed by addition of 5uL of CellTiter-Glo Reagent following the manufacturer's instructions. Luminiscence was measured using a ViewLux.; assay type: functional, cell-based; conditions: Mus musculus, NIH3T3, 96 h
[12] = molecular target: Sterol 14-alpha demethylase (Trypanosoma cruzi (strain CL Brener), UniProt Q7Z1V1); experiment: GSK_TCAKS: pIC50 CYP51 from Trypanosoma cruzi.; assay type: functional
Sterol 14-alpha demethylase, sequence (Q7Z1V1 whole entry): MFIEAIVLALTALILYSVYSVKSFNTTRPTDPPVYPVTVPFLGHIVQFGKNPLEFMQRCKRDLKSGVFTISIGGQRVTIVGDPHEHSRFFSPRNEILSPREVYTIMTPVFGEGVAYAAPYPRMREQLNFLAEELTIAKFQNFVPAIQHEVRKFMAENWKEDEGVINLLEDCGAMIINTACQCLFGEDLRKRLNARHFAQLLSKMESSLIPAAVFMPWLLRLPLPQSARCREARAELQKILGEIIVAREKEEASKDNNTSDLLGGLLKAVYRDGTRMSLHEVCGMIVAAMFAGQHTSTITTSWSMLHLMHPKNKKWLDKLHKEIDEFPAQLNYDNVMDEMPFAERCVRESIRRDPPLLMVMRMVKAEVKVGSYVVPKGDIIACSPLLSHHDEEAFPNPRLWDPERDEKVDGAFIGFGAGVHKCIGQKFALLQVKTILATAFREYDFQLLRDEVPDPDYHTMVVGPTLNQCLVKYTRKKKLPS

Structure (SMILES) | IC50 (Trypanosoma cruzi [1]) | IC50 (Trypanosoma cruzi [2]) | IC50 (Trypanosoma cruzi [3]) | IC50 (Trypanosoma cruzi [4]) | IC50 (Leishmania donovani [5]) | IC50 (Leishmania donovani [6]) | IC50 (Leishmania donovani [7]) | IC50 (Leishmania donovani [8]) | IC50 [9] | IC50 [10] | IC50 at 48 h [11] | IC50 (NIH3T3) | IC50 [12]
Cc1nn(C)c(Cl)c1CN(Cc1cccnc1)Cc1ccsc1 | 0.178 µM | 0.316 µM | 0.316 µM | > 50.1 µM | 2 µM | > 50.1 µM | 3.16 µM | > 50.1 µM | > 39.8 µM | > 39.8 µM | > 100 µM | 20 µM | 0.0631 µM
Cc1ccc(CNC2CCN(C[C@@H]3Cn4c(=O)ccc5ccc(=O)n3c54)CC2)cc1F | 1.26 µM | 1.26 µM | 1 µM | > 50.1 µM | > 50.1 µM | > 50.1 µM | > 50.1 µM | > 50.1 µM | 1.58 µM | 2 µM | > 100 µM | 15.8 µM | > 100 µM
Fc1ccc(O[C@H]2C[C@H](NCc3cccc4cn[nH]c34)C2)cc1C(F)(F)F | 0.794 µM | 0.2 µM | 0.158 µM | 7.94 µM | 20 µM | 7.94 µM | 7.94 µM | 10 µM | 7.94 µM | 10 µM | 25.1 µM | 12.6 µM | 0.126 µM
CN(Cc1nnnn1C1CCN(Cc2ccc(-n3ccnc3)cc2)CC1)c1ccc(F)cc1F | 0.316 µM | 0.316 µM | 0.316 µM | > 50.1 µM | > 50.1 µM | > 50.1 µM | 15.8 µM | > 50.1 µM | > 39.8 µM | > 39.8 µM | > 100 µM | 25.1 µM | 0.126 µM
COc1ccc(C(C)(C)C)cc1S(=O)(=O)n1ccnc1 | 0.141 µM | 0.2 µM | 0.2 µM | > 50.1 µM | 39.8 µM | > 50.1 µM | 25.1 µM | > 50.1 µM | 39.8 µM | > 39.8 µM | > 100 µM | > 50.1 µM | 0.00794 µM
O=C(NCCc1n[nH]c(-c2ccc(F)c(F)c2)n1)C1CCCCC1 | 2 µM | 2.51 µM | 1.58 µM | > 50.1 µM | > 50.1 µM | > 50.1 µM | 15.8 µM | 20 µM | 0.501 µM | 1 µM | > 100 µM | > 50.1 µM | 25.1 µM
COc1ccc2nccc([C@H](O)CN3CC[C@H](NC(=O)c4ccc(Br)cc4)[C@@H](O)C3)c2n1 | 0.251 µM | 1.58 µM | 0.158 µM | 2 µM | 3.16 µM | > 50.1 µM | > 50.1 µM | > 50.1 µM | 0.2 µM | 0.501 µM | > 100 µM | > 50.1 µM | 6.31 µM
